Data: patent US20240010684A1, “MASP INHIBITORY COMPOUNDS AND USES THEREOF” (BAYER AKTIENGESELLSCHAFT, priority 2020, published 2024)
pIC50: −log10 of the molar value. Read-outs that look alike come from different tables or passages of the source. Where a SMILES comes first, the peptide text is derived from it. Bridges are numbered along the chain shown (N, C = ends). [ ]: non-standard residue; d: D form. Oic = O=C(O)[C@@H]1C[C@@H]2CCCC[C@@H]2N1; tBuAla = CC(C)(C)C[C@H](N)C(=O)O; Pen = CC(C)(S)[C@H](N)C(=O)O; Dap = NC[C@H](N)C(=O)O; Ahx = NCCCCCC(=O)O; Sar = CNCC(=O)O

Assays:
rat MASP1 = rat MASP1 (Rattus norvegicus (Rat), UniProt Q8CHN8); test: Biochemical rat MASP1 assay (FRET substrate)
Text: A truncated cDNA sequence of rat MASP1encoding the fragment corresponding to the amino acids 302-704 with a C-terminal His Tag and N-terminal Ig-kappa secretion signal (SEQ ID No: 4) was subcloned into the mammalian expression vector pcDNA3.1 (Invitrogen).
(§1) The MASP1 or MASP2 expression vectors were transfected into the HEK293 (ATCC No. CRL-1573) cell line using Lipofectamine LTX® Reagent (Thermo-Fischer), as described by the manufacturer. The mature form of the recombinant rat MASP1 and MASP2 proteases were secreted into the culture medium. The MASP1 and MASP2 proteins were purified from the conditioned media by affinity chromatography on Ni-NTA Superflow resin (Qiagen) as described by the manufacturer.
4.2 Biochemical Rat MASP1 Assay.
Recombinant rat MASP1 enzyme produced in the HEK 293 cells was diluted in the reaction buffer (50 mM HEPES pH 8,0; 100 mM NaCl; 0,01% CHAPS; 0.5 mM Gluthathione) to the concentration of 4 nM and 25 μl was transferred into each single well of 384-well white microtiter plate (Greiner Bio One 781075). 1 μl of the inhibitor compound solution (dissolved in DMSO, at the corresponding concentration) or pure DMSO as a control was added to the same wells. The enzymatic reaction was initiated by addition of 25 μl of 40 μM solution of the FRET substrate Dabcyl-[…]-Glu(Edans)-NH2; (Dabcyl-4-((4-(dimethylamino)phenyl)azo)benzoic acid; Edans-5-[(2-Aminoethyl) amino]naphthalene-1-sulfonyl; custom synthesis by Jerini Peptide Technologies, Berlin) in the reaction buffer. The microtiter plate was incubated for 60-120 min at the temperature of 32 C. The increase of fluorescence intensity was measured in appropriate fluorescence plate reader (e.g. TECAN Ultra) using excitation wavelength of 340 nm and emission wavelength of 490 nm. IC50 values were calculated from percentage of inhibition of rat […] activity as a function of test compound concentration.

rat MASP2 = rat MASP2 (Rattus norvegicus (Rat), UniProt Q9JJS8); test: Biochemical rat MASP2 assay (FRET substrate)
Text: as §1, with “The mature form of the recombinant rat MASP1 and MASP2 proteases were secreted into the culture medium.” left out, “M[…]” for “MASP2 proteins”

human MASP2 = human MASP2 (Homo sapiens (Human), UniProt O00187); test: Biochemical human MASP2 assay (FRET substrate)
Method in brief: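 Mature recombinant human MASP2, expressed in HEK293 and purified by Ni-NTA affinity, was reacted with a DABCYL FRET peptide substrate (added as a 60 μM solution) for 60-120 min at 32 C. Fluorescence increase was read at ex 340/em 490 nm; IC50 was derived from % inhibition versus compound concentration.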

[1] = system: Human C3-DEPOSITION SERUM; test: C3 deposition assay, human serum on mannan-coated plates; assay type: biochemical; settings: Average IC50, read-out: Human C3-DEPOSITION SERUM IC50
Method in brief: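 Plates coated overnight at 4° C with S. cerevisiae mannan (10 μg/mL, pH 9.6), blocked with 1% BSA in TBS 2 h at 37° C; washes in TBS/0.05% Tween 20/5 mM CaCl2. Antibodies diluted in wash buffer with 0.5% BSA. Colorimetric read-out at 450 nm.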

human MASP1 = human MASP1 (Homo sapiens (Human), UniProt P48740); test: Biochemical human MASP1 assay (FRET substrate)
Method in brief: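 Recombinant human MASP1 (aa 297-699, C-terminal His tag, HEK293-expressed, Ni-NTA purified) diluted to 20 nM in 50 mM HEPES pH 8,0, 100 mM NaCl, 0,01% CHAPS, 0.5 mM glutathione, preincubated with compound in DMSO; reaction started with 20 μM ABZ/Dnp FRET substrate solution. Fluorescence (ex 320/em 420 nm) after 60-120 min at 32 C; IC50 from % inhibition.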

[2] = Average IC50, recombinant rat MASP1, read-out: rat MASP1 IC50
[3] = Average IC50, recombinant rat MASP2, read-out: rat MASP2 IC50
[4] = Average IC50, recombinant human MASP2, read-out: human MASP2 IC50
[5] = Average IC50, recombinant human MASP1, read-out: human MASP1 IC50

Sequence of rat MASP2 (Q9JJS8 other isoform, or with tags, fused parts or gaps): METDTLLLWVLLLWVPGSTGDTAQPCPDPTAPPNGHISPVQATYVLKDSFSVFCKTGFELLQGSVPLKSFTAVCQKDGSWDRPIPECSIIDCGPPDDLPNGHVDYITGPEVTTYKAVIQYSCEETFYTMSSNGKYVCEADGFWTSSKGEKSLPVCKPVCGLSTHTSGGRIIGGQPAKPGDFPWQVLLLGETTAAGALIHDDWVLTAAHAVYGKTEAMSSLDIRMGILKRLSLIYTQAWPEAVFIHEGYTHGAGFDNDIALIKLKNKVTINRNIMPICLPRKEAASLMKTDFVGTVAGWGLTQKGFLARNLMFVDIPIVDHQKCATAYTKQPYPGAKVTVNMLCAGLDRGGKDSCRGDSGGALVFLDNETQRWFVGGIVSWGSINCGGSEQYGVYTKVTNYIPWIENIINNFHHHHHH
Sequence of human MASP1 (P48740 other isoform, or with tags, fused parts or gaps): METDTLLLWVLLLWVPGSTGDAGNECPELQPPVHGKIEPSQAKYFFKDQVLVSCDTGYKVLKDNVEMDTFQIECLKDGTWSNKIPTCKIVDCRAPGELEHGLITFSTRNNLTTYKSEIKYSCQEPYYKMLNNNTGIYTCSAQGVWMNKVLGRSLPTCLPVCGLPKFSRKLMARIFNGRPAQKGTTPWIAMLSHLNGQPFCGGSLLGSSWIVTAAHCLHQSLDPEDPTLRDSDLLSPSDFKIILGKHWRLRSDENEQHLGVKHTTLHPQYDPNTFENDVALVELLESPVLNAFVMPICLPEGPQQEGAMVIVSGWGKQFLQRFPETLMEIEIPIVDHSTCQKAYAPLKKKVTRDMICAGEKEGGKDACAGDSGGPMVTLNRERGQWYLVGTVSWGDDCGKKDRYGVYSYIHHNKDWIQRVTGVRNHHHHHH
Sequence of rat MASP1 (Q8CHN8 other isoform, or with tags, fused parts or gaps): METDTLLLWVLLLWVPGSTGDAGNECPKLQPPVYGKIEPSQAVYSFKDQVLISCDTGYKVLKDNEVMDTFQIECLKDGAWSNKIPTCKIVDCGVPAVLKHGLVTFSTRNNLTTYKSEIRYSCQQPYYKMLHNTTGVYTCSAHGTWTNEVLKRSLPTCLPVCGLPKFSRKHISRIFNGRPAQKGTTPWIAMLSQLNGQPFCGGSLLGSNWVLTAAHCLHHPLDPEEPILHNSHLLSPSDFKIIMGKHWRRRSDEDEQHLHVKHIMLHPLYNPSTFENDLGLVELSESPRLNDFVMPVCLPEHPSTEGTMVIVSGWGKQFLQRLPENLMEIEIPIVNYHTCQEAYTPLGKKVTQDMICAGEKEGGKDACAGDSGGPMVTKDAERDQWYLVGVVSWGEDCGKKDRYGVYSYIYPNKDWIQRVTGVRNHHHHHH
Sequence of human MASP2 (O00187 other isoform, or with tags, fused parts or gaps): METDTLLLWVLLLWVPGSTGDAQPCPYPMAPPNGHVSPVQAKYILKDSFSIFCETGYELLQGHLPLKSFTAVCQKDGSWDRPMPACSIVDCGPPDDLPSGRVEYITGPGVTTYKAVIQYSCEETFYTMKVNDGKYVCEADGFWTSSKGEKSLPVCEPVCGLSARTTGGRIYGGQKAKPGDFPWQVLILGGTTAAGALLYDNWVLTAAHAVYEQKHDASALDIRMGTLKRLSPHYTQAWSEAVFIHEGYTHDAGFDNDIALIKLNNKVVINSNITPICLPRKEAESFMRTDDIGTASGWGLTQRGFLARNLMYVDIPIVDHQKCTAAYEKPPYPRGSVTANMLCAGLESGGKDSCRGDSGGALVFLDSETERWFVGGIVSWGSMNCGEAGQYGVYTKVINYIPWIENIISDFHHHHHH

Compound | pIC50 (rat MASP1; [2]) | pIC50 (rat MASP2; [3]) | pIC50 (human MASP2; [4]) | pIC50 [1] | pIC50 (human MASP1; [5]) | pIC50 (rat MASP1) | pIC50 (rat MASP2) | pIC50 (human MASP2) | pIC50 (human MASP1)
CC[C@H](C)[C@@H]1NC(=O)CNC(=O)[C@@H](N)CCC(=O)NC[C@@H](C(N)=O)NC(=O)[C@H](CC(=O)O)NC(=O)[C@@H]2CCCN2C(=O)[C@H]([C@@H](C)CC)NC(=O)[C@H]2NC(=O)[C@H]([C@@H](C)CC)NC(=O)[C@@H]3C[C@@H]4CCCC[C@@H]4N3C(=O)[C@@H]3CCCN3C(=O)[C@H](CC(C)C)NC(=O)[C@H](CO)NC(=O)[C@H](CCCNC(=N)N)NC(=O)[C@H](CO)NC(=O)[C@H](CSSC2(C)C)NC1=O [Example 93] (H-EGICSRSLP[Oic]I[Pen]IPD[Dap]-NH2; lactam 1-16; disulfide 4-12) | 6.39 | 7.17 | 7.35 | 6.56 | 7.46 | – | – | – | –
CC[C@H](C)[C@@H]1NC(=O)[C@@H]2CCCN2C(=O)[C@@H]2CCCN2C(=O)[C@H]([C@@H](C)CC)NC(=O)[C@@H]2CSSC[C@H](NC(=O)[C@H]([C@@H](C)O)NC(=O)[C@H](CCCCN)NC(=O)[C@H](CO)NC1=O)C(=O)N[C@@H](CCCNC(=N)N)C(=O)NCC(=O)N[C@@H](CC(=O)O)C(=O)N1CCC[C@H]1C(=O)N[C@@H](Cc1ccccc1)C(=O)N2 [Ref. No 12, reference compound] (cyclo(RGDPFCIPPISKTC); disulfide 6-14) | 6.00 | 6.00 | 5.30 | – | 5.32 | – | – | – | –
CC[C@H](C)[C@@H]1NC(=O)CNC(=O)[C@H](CC(=O)O)NC(=O)[C@@H]2CCCN2C(=O)[C@H]([C@@H](C)CC)NC(=O)[C@@H]2CSSC[C@H](NC1=O)C(=O)N[C@@H](CO)C(=O)N[C@@H](CCCNC(=N)N)C(=O)N[C@@H](CO)C(=O)N[C@@H](CC(C)C)C(=O)N1CCC[C@H]1C(=O)N1CCC[C@H]1C(=O)N[C@@H]([C@@H](C)CC)C(=O)N2 [Ref. No 7, reference compound] (cyclo(CIPDGICSRSLPPI); disulfide 1-7) | 6.00 | 6.63 | 6.05 | – | 6.84 | – | – | – | –
CC[C@H](C)[C@@H]1NC(=O)CCCCCNC(=O)CC[C@@H](C(N)=O)NC(=O)[C@@H]2CCCN2C(=O)[C@H]([C@@H](C)CC)NC(=O)[C@H]2NC(=O)[C@H]([C@@H](C)CC)NC(=O)[C@@H]3C[C@@H]4CCCC[C@@H]4N3C(=O)[C@@H]3CCCN3C(=O)[C@H](CC(C)C)NC(=O)[C@H](CO)NC(=O)[C@H](CCCNC(=N)N)NC(=O)[C@H](CO)NC(=O)[C@H](CSSC2(C)C)NC1=O [Example 75] ([Ahx]ICSRSLP[Oic]I[Pen]IPE-NH2; disulfide 3-11; lactam N-14) | 7.57 | 8.85 | 7.85 | – | 8.14 | – | – | – | –
CC[C@H](C)[C@@H]1NC(=O)c2ccc(cc2)CNC(=O)CCCCCNC(=O)[C@@H]2CCCN2C(=O)[C@H]([C@@H](C)CC)NC(=O)[C@H]2NC(=O)[C@H]([C@@H](C)CC)NC(=O)[C@@H]3CCCN3C(=O)[C@@H]3CCCN3C(=O)[C@H](CC(C)(C)C)NC(=O)[C@H](CO)NC(=O)[C@H](CCCNC(=N)N)NC(=O)[C@H](CO)NC(=O)[C@H](CSSC2(C)C)NC1=O [Example 68, N-{3-[(1R,4S,7S,13S,19S,22S,25S,28S,31R,34S,51S,57S)-4,34,57-tri[(2S)-butan-2-yl]-19-(2,2-dimethylpropyl)-22,28-bis(hydroxymethyl)-60,60-dimethyl-3,6,12,18,21,24,27,30,33,36,43,50,56,59-tetradecaoxo-61,62-dithia-2,5,11,17,20,23,26,29,32,35,42,49,55,58-tetradecaazahexacyclo[29.28.4.2^37,400.0^7,110.0^13,170.0^51,55]pentahexaconta-37,39,64-trien-25-yl]propyl}guanidine] | – | – | – | – | – | 7.51 | 8.53 | 8.59 | 8.21

Second part, led by results:

pIC50 (rat MASP1; [2]) | pIC50 (rat MASP2; [3]) | pIC50 (human MASP2; [4]) | pIC50 [1] | pIC50 (human MASP1; [5]) | Compound | pIC50 (rat MASP1) | pIC50 (rat MASP2) | pIC50 (human MASP2) | pIC50 (human MASP1)
6.80 | 7.89 | 7.92 | 7.75 | 8.03 | CC[C@H](C)[C@@H]1NC(=O)CN(C)C(=O)CCCCCNC(=O)[C@H]([C@@H](C)CC)NC(=O)[C@H]2NC(=O)[C@H]([C@@H](C)CC)NC(=O)[C@@H]3CCCN3C(=O)[C@@H]3CCCN3C(=O)[C@H](CC(C)(C)C)NC(=O)[C@H](CO)NC(=O)[C@H](CCCNC(=N)N)NC(=O)[C@H](CO)NC(=O)[C@H](CSSC2(C)C)NC1=O [Example 64, N-{3-[(5aS,11S,14S,17S,20S,23R,26S,39S,42R,45S,47aS)-26,39,45-tri[(2S)-butan-2-yl]-11-(2,2-dimethylpropyl)-14,20-bis(hydroxymethyl)-30,48,48-trimethyl-5,10,13,16,19,22,25,28,31,38,41,44,47-tridecaoxohexatetracontahydro-5H-23,42-(methanodithiomethano)dipyrrolo[2,1-1:2′,1′-o][1,4,7,10,13,16,19,22,25,28,31,34,37]tridecaazacyclotritetracontin-17-yl]propyl}guanidine] (cyclo([Ahx][Sar]ICSRS[tBuAla]PPI[Pen]I); disulfide 4-12) | – | – | – | –
7.07 | 7.85 | 7.32 | – | 8.20 | CC[C@H](C)[C@@H]1NC(=O)[C@H](C)NC(=O)CCCCCNC(=O)[C@H]([C@@H](C)CC)NC(=O)[C@H]2NC(=O)[C@H]([C@@H](C)CC)NC(=O)[C@@H]3CCCN3C(=O)[C@@H]3CCCN3C(=O)[C@H](CC(C)(C)C)NC(=O)[C@H](CO)NC(=O)[C@H](CCCNC(=N)N)NC(=O)[C@H](CO)NC(=O)[C@H](CSSC2(C)C)NC1=O [Example 72, N-{3-[(5aS,11S,14S,17S,20S,23R,26S,29S,39S,42R,45S,47aS)-26,39,45-tri[(2S)-butan-2-yl]-11-(2,2-dimethylpropyl)-14,20-bis(hydroxymethyl)-29,48,48-trimethyl-5,10,13,16,19,22,25,28,31,38,41,44,47-tridecaoxohexatetracontahydro-5H-23,42-(methanodithiomethano)dipyrrolo[2,1-1:2′,1′-o][1,4,7,10,13,16,19,22,25,28,31,34,37]tridecaazacyclotritetracontin-17-yl]propyl}guanidine] (cyclo(AICSRS[tBuAla]PPI[Pen]I[Ahx]); disulfide 3-11) | – | – | – | –
7.10 | 7.80 | 7.54 | – | 7.72 | CC[C@H](C)[C@@H]1NC(=O)CNC(=O)CCCCCNC(=O)[C@H](CC(=O)O)NC(=O)[C@@H]2CCCN2C(=O)[C@H]([C@@H](C)CC)NC(=O)[C@H]2NC(=O)[C@H]([C@@H](C)CC)NC(=O)[C@@H]3CCCN3C(=O)[C@@H]3CCCN3C(=O)[C@H](CC(C)(C)C)NC(=O)[C@H](CO)NC(=O)[C@H](CCCNC(=N)N)NC(=O)[C@H](CO)NC(=O)[C@H](CSSC2(C)C)NC1=O [Example 28] (cyclo([Ahx]GICSRS[tBuAla]PPI[Pen]IPD); disulfide 4-12) | – | – | – | –
